What was measured:
[1] = biological target: His-AKT (Full Length) (Homo sapiens (Human), UniProt P31749); assay: AKT/PKB kinase assay; assay type: biochemical; conditions: 160 μM ATP, 90 min at 25° C., Caliper mobility shift
Experimental: In order to measure AKT inhibition in the Caliper Life Sciences LC3000, a TTP Mosquito liquid handling instrument was used to place 125 nl of the appropriate concentration of inhibitor in 100% DMSO (for a dose response curve calculation) into each well of a 384-well plate. To this reaction, the following components were added to a final volume of 12.5 μl: • 0.1 ng/μl His-AKT (Full Length) (Invitrogen, Part # P2999, Lot #641228C); • 160 μM ATP (Fluka, 02055); • 1 mM DTT (Sigma, D0632); • 1 mM MgCl2 (Sigma, M1028); • 1 μM substrate peptide (sequence FITC-AHA-[…]-NH2), synthesized by • Tufts Peptide Synthesis service; • 100 mM HEPES pH 7.5 (Calbiochem, 391338); and • 0.015% Brij-35 (Sigma, B4184).
The reaction was incubated for 90 min at 25° C., and then stopped by the addition of 70 μl of Stop buffer (100 mM HEPES pH 7.5, 0.015% Brij-35, 10 mM EDTA (Sigma, E7889)). The plate was read on a Caliper LC 3000 in an Off-Chip mobility shift assay format, using the following parameters for a 12-sipper chip: screening pressure −2.3 psi, upstream voltage −500, and downstream voltage −3000. These conditions cause unphosphorylated substrate and phosphorylated product peptide to resolve as separate peaks allowing direct measurement of percentage of conversion of substrate to product. The percent conversion was plotted against concentration of inhibitor to produce a sigmoidal dose response curve, from which an IC50 was calculated.

[2] = biological target: p70S6K (T412E mutant) (Homo sapiens (Human), UniProt P23443, T412E); assay: p70S6K enzyme assay; assay type: biochemical; conditions: 24 μM ATP, 90 min at 25° C., Caliper mobility shift
Experimental: p70S6K inhibitor compounds were diluted and plated in 96 well plates. A reaction mixture including the following components were then added to the compound plate to initiate the enzyme reaction: p70S6K (3 nM, T412E mutant, Millipore) was mixed with 24 μM ATP in an assay buffer containing 100 mM Hepes (pH 7.5), 5 mM MgCl2, 1 mM DTT, 0.015% Brij and 1 μM of the substrate peptide FITC-AHA-[…]-OH (derived from the S6 ribosomal protein sequence, FITC=fluorescein isothiocyanate, AHA=6-aminohexanoic acid). The reaction was incubated for 90 min at 25° C., before the addition of 10 mM EDTA to stop the reaction. The proportion of substrate and product (phosphorylated) peptide was analyzed on a Caliper Life Sciences Lab Chip 3000, using a pressure of −1.4 psi, and upstream and downstream voltages of −3000 and −700, respectively. Product peaks were resolved before substrate peaks on the resulting chromatograms. To assess the inhibitory potential of the compounds, IC50 values were determined, as shown above.

Chain of p70S6K (T412E mutant) (P23443 whole entry T412E): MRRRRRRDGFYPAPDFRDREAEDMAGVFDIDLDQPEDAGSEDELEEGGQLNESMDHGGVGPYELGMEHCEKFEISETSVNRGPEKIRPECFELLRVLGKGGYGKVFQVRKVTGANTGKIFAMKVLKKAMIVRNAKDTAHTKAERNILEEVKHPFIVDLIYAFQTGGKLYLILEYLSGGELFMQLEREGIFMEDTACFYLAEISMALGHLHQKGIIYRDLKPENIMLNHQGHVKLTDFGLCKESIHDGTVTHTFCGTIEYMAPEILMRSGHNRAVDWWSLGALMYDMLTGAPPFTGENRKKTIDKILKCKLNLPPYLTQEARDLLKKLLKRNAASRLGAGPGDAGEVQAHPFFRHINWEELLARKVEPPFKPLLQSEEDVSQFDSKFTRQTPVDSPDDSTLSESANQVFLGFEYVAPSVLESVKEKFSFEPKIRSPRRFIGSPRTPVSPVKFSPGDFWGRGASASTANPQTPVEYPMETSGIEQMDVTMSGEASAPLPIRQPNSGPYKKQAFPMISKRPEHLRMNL
Chain of His-AKT (Full Length) (P31749 whole entry): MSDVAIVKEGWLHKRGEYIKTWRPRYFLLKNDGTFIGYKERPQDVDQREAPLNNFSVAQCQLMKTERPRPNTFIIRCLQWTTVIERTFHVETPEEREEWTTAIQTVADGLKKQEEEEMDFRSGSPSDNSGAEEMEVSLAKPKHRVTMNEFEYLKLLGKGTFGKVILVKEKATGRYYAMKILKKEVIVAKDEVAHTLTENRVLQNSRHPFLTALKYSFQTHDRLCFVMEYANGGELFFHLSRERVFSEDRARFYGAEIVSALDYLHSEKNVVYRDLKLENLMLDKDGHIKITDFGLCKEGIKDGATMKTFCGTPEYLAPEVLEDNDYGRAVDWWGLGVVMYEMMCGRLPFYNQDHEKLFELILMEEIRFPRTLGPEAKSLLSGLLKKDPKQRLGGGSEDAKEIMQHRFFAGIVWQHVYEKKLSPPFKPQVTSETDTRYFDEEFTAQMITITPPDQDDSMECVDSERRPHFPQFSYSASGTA

Compound | IC50 [1] [nM] | IC50 [2] [nM]
CCNC[C@@H](Nc1ncnc2c(C(N)=O)ccnc12)c1cc(F)c(F)cc1F [Compound 58, 4-[(S)-2-Ethylamino-1-(2,4,5-trifluoro-phenyl)-ethylamino]-pyrido[3,2-d]pyrimidine-8-carboxylic Acid Amide] | 101 to 500 | 25 to 100
CCNC[C@@H](Nc1ncnc2c(C(N)=O)ccnc12)c1ccc(C(F)(F)F)c(C(F)(F)F)c1 [Compound 59, 4-[(S)-1-(3,4-Bis-trifluoromethyl-phenyl)-2-ethylamino-ethylamino]-pyrido[3,2-d]pyrimidine-8-carboxylic Acid Amide] | < 25 | < 25
CNC[C@@H](Nc1ncnc2c(C(N)=O)ccnc12)c1cc(F)c(F)cc1F [Compound 60, 4-[(S)-2-Methylamino-1-(2,4,5-trifluoro-phenyl)-ethylamino]-pyrido[3,2-d]pyrimidine-8-carboxylic Acid Amide] | 25 to 100 | 25 to 100
NC(=O)c1ccnc2c(N[C@H](CN3CCC3)c3ccc(C(F)(F)F)c(C(F)(F)F)c3)ncnc12 [Compound 63, 4-[(S)-2-Azetidin-1-yl-1-(3,4-bis-trifluoromethyl-phenyl)-ethylamino]-pyrido[3,2-d]pyrimidine-8-carboxylic Acid Amide] | < 25 | < 25
CNC[C@@H](Nc1ncnc2c(C(N)=O)ccnc12)c1cccc(Cl)c1 [Compound 64, 4-[(S)-1-(3-Chloro-phenyl)-2-methylamino-ethylamino]-pyrido[3,2-d]pyrimidine-8-carboxylic Acid Amide] | < 25 | < 25
CNC[C@@H](Nc1ncnc2c(C(N)=O)ccnc12)c1cccc(Br)c1 [Compound 65, 4-[(S)-1-(3-Bromo-phenyl)-2-methylamino-ethylamino]-pyrido[3,2-d]pyrimidine-8-carboxylic Acid Amide] | < 25 | < 25
CNC[C@@H](Nc1ncnc2c(C(N)=O)ccnc12)c1cccc(F)c1 [Compound 66, 4-[(S)-1-(3-Fluoro-phenyl)-2-methylamino-ethylamino]-pyrido[3,2-d]pyrimidine-8-carboxylic Acid Amide] | < 25 | < 25
CNC[C@@H](Nc1ncnc2c(C(N)=O)ccnc12)c1ccc(F)c(C)c1 [Compound 67, 4-[(S)-1-(4-Fluoro-3-methyl-phenyl)-2-methylamino-ethylamino]-pyrido[3,2-d]pyrimidine-8-carboxylic Acid Amide] | < 25 | < 25
NC(=O)c1ccnc2c(N[C@H](CN3CCC3)c3cccc(F)c3)ncnc12 [Compound 68, 4-[(S)-2-Azetidin-1-yl-1-(3-fluoro-phenyl)-ethylamino]-pyrido[3,2-d]pyrimidine-8-carboxylic Acid Amide] | 25 to 100 | < 25
NC(=O)c1ccnc2c(N[C@H](CN3CC(F)C3)c3ccc(Cl)c(C(F)(F)F)c3)ncnc12 [Compound 69, 4-[(S)-1-(4-Chloro-3-trifluoromethyl-phenyl)-2-(3-fluoro-azetidin-1-yl)-ethylamino]-pyrido[3,2-d]pyrimidine-8-carboxylic Acid Amide] | 25 to 100 | < 25
NC(=O)c1ccnc2c(N[C@H](CN3CC(O)C3)c3ccc(Cl)c(C(F)(F)F)c3)ncnc12 [Compound 70, 4-[(S)-1-(4-Chloro-3-trifluoromethyl-phenyl)-2-(3-hydroxy-azetidin-1-yl)-ethylamino]-pyrido[3,2-d]pyrimidine-8-carboxylic Acid Amide] | 25 to 100 | < 25
NC(=O)c1ccnc2c(N[C@@H](CN3CCC3)c3ccc(Cl)c(C(F)(F)F)c3)ncnc12 [Compound 71, 4-[(R)-2-Azetidin-1-yl-1-(4-chloro-3-trifluoromethyl-phenyl)-ethylamino]-pyrido[3,2-d]pyrimidine-8-carboxylamide] | > 1000 | 501 to 1000
CNC[C@@H](Nc1ncnc2c(C(N)=O)ccnc12)c1ccc(Cl)c(C(F)(F)F)c1 [Compound 72, 4-[(S)-1-(4-Chloro-3-trifluoromethyl-phenyl)-2-methylamino-ethylamino]-pyrido[3,2-d]pyrimidine-8-carboxylic Acid Amide] | < 25 | < 25
NC(=O)c1ccnc2c(N[C@H](CN3CCC3)c3ccc(OC(F)(F)F)c(Cl)c3)ncnc12 [Compound 73, 4-[(S)-2-Azetidin-1-yl-1-(3-chloro4-trifluoromethoxy-phenyl)-ethylamino]-pyrido[3,2-d]pyrimidine-8-carboxylamide] | 25 to 100 | < 25
CNC[C@@H](Nc1ncnc2c(C(N)=O)ccnc12)c1ccc(OC(F)(F)F)c(Cl)c1 [Compound 74, 4-[(S)-1-(3-Chloro-4-trifluoromethoxy-phenyl)-2-methylamino-ethylamino]-pyrido[3,2-d]pyrimidine-8-carboxylamide] | 25 to 100 | < 25
CNC[C@@H](Nc1ncnc2c(C(N)=O)ccnc12)c1ccc(Cl)c(Cl)c1 [Compound 75, 4-[(S)-1-(3,4-Dichloro-phenyl)-2-methylamino-ethylamino]-pyrido[3,2-d]pyrimidine-8-carboxylamide] | < 25 | < 25
CNC[C@@H](Nc1ncnc2c(C(N)=O)ccnc12)c1ccc(C)c(C(F)(F)F)c1 [Compound 76, 4-[(S)-2-Methylamino-1-(4-methyl-3-trifluoromethyl-phenyl)-ethylamino]-pyrido[3,2-d]pyrimidine-8-carboxylic Acid Amide] | < 25 | < 25

Reference: patent publication US9981925B2, “Substituted benzo[d][1,2,3]triazines as p70S6K inhibitors” (Merck Patent GmbH, priority 2012, dated 2018)
